Test results: ChEMBL document CHEMBL5506059, “Cyanomethylquinolones as a New Class of Potential Multitargeting Broad-Spectrum Antibacterial Agents” (J Med Chem, 2024)
In brackets after ≈: the same amount, converted by molar mass. Activity calls are given as the source filed them. No cut-off for these calls is given here.

What was measured:
Staphylococcus aureus [1] = experiment: Antibiofilm activity in methicillin resistant Staphylococcus aureus assessed as biofilm eradication at 1 to 2 ug/ml measured after 24 hrs by crystal violet staining based analysis; type: functional, organism-based; details: dose 1-2 µg/ml
Streptococcus pyogenes = experiment: Antibacterial activity against Streptococcus pyogenes ATCC 19615 assessed as inhibition of bacterial growth incubated for 24 hrs; type: functional
[2] = tested on: Staphylococcus epidermidis; experiment: Antibacterial activity against Staphylococcus epidermidis ATCC 12228 assessed as inhibition of bacterial growth incubated for 24 hrs; type: functional
Pseudomonas aeruginosa [3] = experiment: Bactericidal activity against Pseudomonas aeruginosa assessed as increase in fluorescence intensity at 2 ug/ml incubated for 6 hrs by PI staining based fluorescence analysis; type: functional, organism-based; details: dose 2.0 µg/ml
Enterococcus faecium = experiment: Antibacterial activity against Enterococcus faecium ATCC 19434 assessed as inhibition of bacterial growth incubated for 24 hrs; type: functional
Cell membrane [4] = experiment: Induction of cell membrane permeability in methicillin-resistant Staphylococcus aureus assessed as increase in fluorescence intensity at 1 ug/ml incubated for 6 hrs by PI staining based fluorescence analysis; type: cell membranes; details: dose 1.0 µg/ml
Staphylococcus aureus [5] = experiment: Bactericidal activity against methicillin-resistant Staphylococcus aureus assessed as increase in fluorescence intensity at 2 ug/ml incubated for 6 hrs by PI staining based fluorescence analysis; type: functional, organism-based; details: dose 2.0 µg/ml
Pseudomonas aeruginosa [6] = experiment: Induction of intracellular ROS generation in Pseudomonas aeruginosa assessed as increase in fluorescence intensity at 2 ug/ml incubated for 6 hrs in presence of N-acetyl-L-cysteine by DCFH-DA dye based fluorescence analysis; type: functional, organism-based; details: dose 2.0 µg/ml
Cell membrane [7] = experiment: Induction of cell membrane permeability in Pseudomonas aeruginosa assessed as increase in fluorescence intensity at 1 ug/ml incubated for 6 hrs by PI staining based fluorescence analysis; type: cell membranes; details: dose 1.0 µg/ml
Staphylococcus aureus [8] = experiment: Induction of morphological changes in methicillin resistant Staphylococcus aureus at 2 ug/ml incubated for 3 hrs by SEM analysis; type: functional, organism-based; details: dose 2.0 µg/ml
Cell membrane [9] = experiment: Induction of cell membrane depolarization in Pseudomonas aeruginosa assessed as increase in fluorescence intensity at 1 ug/ml measured for 30 mins by DiSC35 dye based fluorescence analysis; type: cell membranes; details: dose 1.0 µg/ml
Pseudomonas aeruginosa [10] = experiment: Resistance development in ciprofloxacin-treated Pseudomonas aeruginosa assessed as increase in MIC measured after 15th generation; type: functional, organism-based
Staphylococcus aureus [11] = experiment: Antibacterial activity against Staphylococcus aureus ATCC 29213 assessed as inhibition of bacterial growth incubated for 24 hrs; type: functional
Streptococcus pneumoniae = experiment: Antibacterial activity against Streptococcus pneumoniae ATCC 6305 assessed as inhibition of bacterial growth incubated for 24 hrs; type: functional
Staphylococcus aureus [12] = experiment: Resistance development in ciprofloxacin-treated methicillin resistant Staphylococcus aureus assessed as increase in MIC measured after 15th generation; type: functional, organism-based
Staphylococcus aureus [13] = experiment: Antibacterial activity against Staphylococcus aureus ATCC 6538 assessed as inhibition of bacterial growth incubated for 24 hrs; type: functional
Cell membrane [14] = experiment: Induction of cell membrane depolarization in methicillin-resistant Staphylococcus aureus assessed as increase in fluorescence intensity at 1 ug/ml measured for 30 mins by DiSC35 dye based fluorescence analysis; type: cell membranes; details: dose 1.0 µg/ml
Pseudomonas aeruginosa [15] = experiment: Antibiofilm activity in Pseudomonas aeruginosa assessed as biofilm eradication at 1 to 2 ug/ml measured after 24 hrs by crystal violet staining based analysis; type: functional, organism-based; details: dose 1-2 µg/ml
Staphylococcus aureus [16] = experiment: Antibacterial activity against Staphylococcus aureus ATCC 25923 assessed as inhibition of bacterial growth incubated for 24 hrs; type: functional
Pseudomonas aeruginosa [17] = experiment: Induction of morphological changes in Pseudomonas aeruginosa at 2 ug/ml incubated for 3 hrs by SEM analysis; type: functional, organism-based; details: dose 2.0 µg/ml
Pseudomonas aeruginosa [18] = experiment: Induction of intracellular ROS generation in Pseudomonas aeruginosa assessed as increase in fluorescence intensity at 2 ug/ml incubated for 6 hrs by DCFH-DA dye based fluorescence analysis; type: functional, organism-based; details: dose 2.0 µg/ml
Staphylococcus aureus [19] = experiment: Resistance development in ciprofloxacin-treated Staphylococcus aureus ATCC 6538 assessed as increase in MIC measured after 15th generation; type: functional, organism-based
Pseudomonas aeruginosa [20] = experiment: Resistance development in ciprofloxacin-treated Pseudomonas aeruginosa ATCC 27853 assessed as increase in MIC measured after 15th generation; type: functional, organism-based
Klebsiella pneumoniae = experiment: Antibacterial activity against Klebsiella pneumoniae clinical isolate assessed as inhibition of bacterial growth incubated for 24 hrs; type: functional
Escherichia coli [21] = experiment: Antibacterial activity against Escherichia coli clinical isolate assessed as inhibition of bacterial growth incubated for 24 hrs; type: functional
Pseudomonas aeruginosa [22] = experiment: Antibacterial activity against Pseudomonas aeruginosa clinical isolate assessed as inhibition of bacterial growth incubated for 24 hrs; type: functional
Escherichia coli [23] = experiment: Antibacterial activity against Escherichia coli ATCC 25922 assessed as inhibition of bacterial growth incubated for 24 hrs; type: functional
Staphylococcus aureus [24] = experiment: Antibacterial activity against methicillin resistant Staphylococcus aureus clinical isolate assessed as inhibition of bacterial growth incubated for 24 hrs; type: functional
Staphylococcus aureus [25] = experiment: Antibacterial activity against Staphylococcus aureus clinical isolate assessed as inhibition of bacterial growth incubated for 24 hrs; type: functional
Enterococcus faecalis [26] = experiment: Antibacterial activity against Enterococcus faecalis clinical isolate assessed as inhibition of bacterial growth incubated for 24 hrs; type: functional
Acinetobacter baumannii = experiment: Antibacterial activity against Acinetobacter baumannii clinical isolate assessed as inhibition of bacterial growth incubated for 24 hrs; type: functional
Pseudomonas aeruginosa [27] = experiment: Antibacterial activity against Pseudomonas aeruginosa ATCC 27853 assessed as inhibition of bacterial growth incubated for 24 hrs; type: functional
Staphylococcus aureus [28] = experiment: Antibacterial activity against Staphylococcus aureus ATCC 12600 assessed as inhibition of bacterial growth incubated for 24 hrs; type: functional
Enterococcus faecalis [29] = experiment: Antibacterial activity against vancomycin-resistant Enterococcus faecalis clinical isolate p1-2007226001 assessed as inhibition of bacterial growth incubated for 24 hrs; type: functional
Enterococcus faecalis [30] = experiment: Antibacterial activity against vancomycin-resistant Enterococcus faecalis clinical isolate p1-2007225053 assessed as inhibition of bacterial growth incubated for 24 hrs; type: functional
Erythrocyte = experiment: Hemolytic activity in human Red blood cells assessed as concentration required for 5% hemolysis measured after 1.5 hrs by absorbance based assay; type: toxicity, cell-based
Staphylococcus aureus [31] = experiment: Antibacterial activity against Staphylococcus aureus CMCC(B)26001 assessed as inhibition of bacterial growth incubated for 24 hrs; type: functional
Staphylococcus aureus [32] = experiment: Antibacterial activity against Staphylococcus aureus CMCC(B)26003 assessed as inhibition of bacterial growth incubated for 24 hrs; type: functional
Staphylococcus aureus [33] = experiment: Antibacterial activity against methicillin-resistant Staphylococcus aureus ATCC 43300 assessed as inhibition of bacterial growth incubated for 24 hrs; type: functional

| Compound | MIC (Streptococcus pyogenes) | MIC [2] | MIC (Enterococcus faecium) | MIC (Staphylococcus aureus [11]) | MIC (Streptococcus pneumoniae) | MIC (Staphylococcus aureus [13]) | MIC (Staphylococcus aureus [16]) | MIC (Klebsiella pneumoniae) | MIC (Escherichia coli [21]) | MIC (Pseudomonas aeruginosa [22]) | MIC (Escherichia coli [23]) | MIC (Staphylococcus aureus [24]) | MIC (Staphylococcus aureus [25]) | MIC (Enterococcus faecalis [26]) | MIC (Acinetobacter baumannii) | MIC (Pseudomonas aeruginosa [27]) | also measured |
| --- | --- | --- | --- | --- | --- | --- | --- | --- | --- | --- | --- | --- | --- | --- | --- | --- | --- |
| O=C(O)c1cn(C2CC2)c2cc(N3CCNCC3)c(F)cc2c1=O [CIPROFLOXACIN] | 16 µg/mL (≈ 48.3 µM) | 0.125 µg/mL (≈ 0.377 µM) | 2 µg/mL (≈ 6.04 µM) | 0.5 µg/mL (≈ 1.51 µM) | 0.125 µg/mL (≈ 0.377 µM) | 0.5 µg/mL (≈ 1.51 µM) | 1 µg/mL (≈ 3.02 µM) |  |  |  |  |  |  |  |  |  | Activity (Staphylococcus aureus [1]): inactive; Activity (Pseudomonas aeruginosa [3]): Active; Activity (Cell membrane [4]): inactive; Activity (Staphylococcus aureus [5]): Active; Activity (Pseudomonas aeruginosa [6]): inactive; Activity (Cell membrane [7]): inactive; Activity (Staphylococcus aureus [8]): Active; Activity (Cell membrane [9]): inactive; Activity (Pseudomonas aeruginosa [10]): Active; Activity (Staphylococcus aureus [12]): Active; Activity (Cell membrane [14]): inactive; Activity (Pseudomonas aeruginosa [15]): inactive; Activity (Pseudomonas aeruginosa [17]): Active; Activity (Pseudomonas aeruginosa [18]): Active; Activity (Staphylococcus aureus [19]): Active; Activity (Pseudomonas aeruginosa [20]): Active |
| N#CCc1cc2c(cc1F)c(=O)c(C(=O)O)cn2CCN1CCOCC1 |  |  |  | 4 µg/mL (≈ 11.1 µM) |  |  | 1 µg/mL (≈ 2.78 µM) | 8 µg/mL (≈ 22.3 µM) | 16 µg/mL (≈ 44.5 µM) | 2 µg/mL (≈ 5.57 µM) | 4 µg/mL (≈ 11.1 µM) | 8 µg/mL (≈ 22.3 µM) | 16 µg/mL (≈ 44.5 µM) | 16 µg/mL (≈ 44.5 µM) | 8 µg/mL (≈ 22.3 µM) | 16 µg/mL (≈ 44.5 µM) |  |
| CCn1cc(C(=O)O)c(=O)c2cc(F)c(CC(=O)O)cc21 |  |  |  | 32 µg/mL (≈ 109 µM) |  |  | 16 µg/mL (≈ 54.6 µM) | 1 µg/mL (≈ 3.41 µM) | 8 µg/mL (≈ 27.3 µM) | 8 µg/mL (≈ 27.3 µM) | 8 µg/mL (≈ 27.3 µM) | 64 µg/mL (≈ 218 µM) | 64 µg/mL (≈ 218 µM) | 0.5 µg/mL (≈ 1.71 µM) | 16 µg/mL (≈ 54.6 µM) | 2 µg/mL (≈ 6.82 µM) |  |
| N#CCc1cc2c(cc1F)c(=O)c(C(=O)O)cn2CC1CCC1 |  |  |  | 256 µg/mL (≈ 814 µM) |  |  | 0.5 µg/mL (≈ 1.59 µM) | 256 µg/mL (≈ 814 µM) | 128 µg/mL (≈ 407 µM) | 256 µg/mL (≈ 814 µM) | 128 µg/mL (≈ 407 µM) | 128 µg/mL (≈ 407 µM) | 64 µg/mL (≈ 204 µM) | 32 µg/mL (≈ 102 µM) | 256 µg/mL (≈ 814 µM) | 128 µg/mL (≈ 407 µM) |  |
| N#CCc1cc2c(cc1F)c(=O)c(C(=O)O)cn2Cc1ccc(F)cc1F | 0.25 µg/mL (≈ 0.671 µM) | 64 µg/mL (≈ 172 µM) | 128 µg/mL (≈ 344 µM) | 0.5 µg/mL (≈ 1.34 µM) | 32 µg/mL (≈ 86 µM) | 32 µg/mL (≈ 86 µM) | 0.25 µg/mL (≈ 0.671 µM) | 8 µg/mL (≈ 21.5 µM) | 0.5 µg/mL (≈ 1.34 µM) | 0.5 µg/mL (≈ 1.34 µM) | 0.25 µg/mL (≈ 0.671 µM) | 256 µg/mL (≈ 688 µM) | 256 µg/mL (≈ 688 µM) | 256 µg/mL (≈ 688 µM) | 4 µg/mL (≈ 10.7 µM) | 0.5 µg/mL (≈ 1.34 µM) | MIC (Staphylococcus aureus [28]): 64 µg/mL (≈ 172 µM); MIC (Enterococcus faecalis [29]): 64 µg/mL (≈ 172 µM); MIC (Enterococcus faecalis [30]): 64 µg/mL (≈ 172 µM); HC5 (Erythrocyte): 60 µg/mL; MIC (Staphylococcus aureus [31]): 2 µg/mL (≈ 5.37 µM); MIC (Staphylococcus aureus [32]): 2 µg/mL (≈ 5.37 µM); MIC (Staphylococcus aureus [33]): 128 µg/mL (≈ 344 µM) |
